A word on the IC50: it is the concentration at which inhibition is half-maximal.

Consider two compounds from article PMC3576019 (The Journal of steroid biochemistry and molecular biology, 2010).

For assay [1], the system named is rabbit endometrium. The assay is described as follows: McPhail assay in estrogen-primed immature rabbits. Type of assay: in vivo. The conditions noted are these: progesterone alone (method: MPA 0.15mg/kg/day).
Assay [2] has as its target T1, Progesterone Receptor (Homo sapiens, UniProt P06401).
T1 sequence (P06401 1-933): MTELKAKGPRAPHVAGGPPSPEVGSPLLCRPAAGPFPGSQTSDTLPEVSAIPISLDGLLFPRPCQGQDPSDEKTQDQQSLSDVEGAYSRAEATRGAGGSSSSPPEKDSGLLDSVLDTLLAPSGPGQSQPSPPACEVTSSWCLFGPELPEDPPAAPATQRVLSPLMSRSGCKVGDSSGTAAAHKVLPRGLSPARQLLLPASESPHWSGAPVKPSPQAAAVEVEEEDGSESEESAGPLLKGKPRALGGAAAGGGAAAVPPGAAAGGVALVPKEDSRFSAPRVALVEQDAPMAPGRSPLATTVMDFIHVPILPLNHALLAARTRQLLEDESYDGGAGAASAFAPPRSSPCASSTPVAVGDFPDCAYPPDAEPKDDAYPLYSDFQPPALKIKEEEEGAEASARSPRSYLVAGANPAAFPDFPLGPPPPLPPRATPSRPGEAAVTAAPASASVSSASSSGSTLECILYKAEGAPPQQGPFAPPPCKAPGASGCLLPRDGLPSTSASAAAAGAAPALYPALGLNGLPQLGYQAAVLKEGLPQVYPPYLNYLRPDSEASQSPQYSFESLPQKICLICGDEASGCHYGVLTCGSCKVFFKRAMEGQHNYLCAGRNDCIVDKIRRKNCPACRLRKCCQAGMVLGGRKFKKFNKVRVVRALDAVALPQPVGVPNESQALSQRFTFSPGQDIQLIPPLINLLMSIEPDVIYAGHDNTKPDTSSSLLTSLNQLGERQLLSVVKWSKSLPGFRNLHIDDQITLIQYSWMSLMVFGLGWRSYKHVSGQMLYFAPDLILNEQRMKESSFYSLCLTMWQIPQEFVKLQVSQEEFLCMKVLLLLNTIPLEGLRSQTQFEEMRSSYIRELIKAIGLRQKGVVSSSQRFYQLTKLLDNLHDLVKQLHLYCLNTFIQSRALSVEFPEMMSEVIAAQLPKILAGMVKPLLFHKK
The assay is described as follows: Alkaline phosphatase assay in T47D cells. The conditions noted are these: 20 h, progesterone at 10nM. Type of assay: cell-based.

Assay [3] addresses porcine uterine progesterone receptor. Particulars: read-out: IC50 for the porcine uterine progesterone receptor; ref [17]; cited from earlier work.

In the case of `CC(=O)[C@H]1CC[C@H]2[C@@H]3CCC4=CC(=O)CC[C@]4(C)[C@H]3CC[C@]12C` [Progesterone], in assay [1], the “progestational histologic changes (McPhail Index), positive control” value is on record as “maximal progestational histologic changes were noted”. Moreover, the “induction of alkaline phosphatase activity” value in assay [2] is on record as “significantly increased alkaline phosphatase activity”. As for `CC(=O)O[C@H]1[C@@H](O)C=C2C=C3OC(=O)C(C)=C3C[C@]2(C)[C@H]1C` [PF1092A], the half-inhibitory concentration (IC50) in assay [3] is 30 nM.
